Measurements reported in patent US7465708B2, “Branched cationic copolymers and methods for antimicrobial use” (priority 2002, dated 2008).
Like-named read-outs stand apart in the source and are kept apart here. Positions of bridges follow the written chain, without caps; N, C: chain ends. Chains are numbered I, II in the order given. No end group written: not given here.

Assays:
MDA-MB-435 cells = experiment: In vitro toxicity: reduction in cell number after incubation with polymers; assay type: cell-based
Description: In vitro toxicity of these polymers was then examined on a malignant cell line (MDA-MB-435).

mice = experiment: Acute in vivo toxicity after IV injection; conditions: for side effects of surviving mice (scale): one symbol per mouse; for histology of major organs: mice who died from polymers at higher dosages; for in vivo toxicity (in words): administered intravenously
Description: One of the major limitations of cationic peptides is their potenitial toxicity when administered systemically. As a result, we tested the acute toxicity of these polymers after injecting them IV. […] Conversely, linear polymers that had minimal to moderate antibacterial properties had the greatest in vivo toxicity. […] Even if one arginine adjacent to the histidine residue replaces the amino terminal lysine in the HK polymer (e.g., HK-R), the polymer was still very toxic when administered intravenously. The in vivo toxicity of linear HK polymers from most to least is as follows: HR>HK-R>>HK. […] There were parallels between in vitro and in vivo toxicity studies (Tables 2 and 3). […] The data is consistent with linear polymers interacting and inhibiting ionic channels of the cardiovascular system (similar to neurotoxins). Intravenous injection of linear polymers with arginine or lysines adjacent (or near) to histidines should be avoided.

[1] = test system: gram negative bacteria E. coli transformed with a kanamycin-resistant plasmid; experiment: In vitro bacteria inhibition (MIC, turbidity O.D. 600 nm in LB broth); assay type: cell-based
Experimental: Bacteria; A gram negative bacteria E. coli transformed with a kanamycin-resistant plasmid was used in these experiments and grown in LB media (Biofluids, Rockville, Md.).
For in vitro studies, several polymers were tested for their ability to inhibit gram negative bacteria. […] The histidine and lysine ratio and their sequence order have an important role in the-polymers' effects. […] Since it is likely that H^3KN4b has the greatest ability to chelate key transitional elements, chelation of key elements in LB media, separate from the polymer's role of binding to the bacteria membrane, is unlikely to have a major role in the inhibition of bacteria. • 3) The sequence order of lysine and histidine in the branched polymer has a major role in the inhibition of bacteria. Altering these sequences affects the antibacterial activity of […]. Sufficient cationic amino acids are critical for binding whereas the exact function of histidine is unclear. Data supports that cationic amino acids need to be evenly distributed in branches, particularly at N-terminal ends. Too many cationic amino acids in the polymer, however, reduce antibacterial activity. • 4) Histidine may have a role in the interruption of iron transport systems and/or it may enhance the hydrophobic interactions of the polymer with the bacteria membrane.

[2] = 50 μg/ml, 6 h incubation in DMEM/10% serum, counted 24 h later vs untreated cells
[3] = 150 μg/ml, 6 h incubation in DMEM/10% serum, counted 24 h later vs untreated cells
[4] = 100 μl/ml, 6 h incubation in DMEM/10% serum, counted 24 h later vs untreated cells

Substance | number of mice who survive treatment / number of mice in treatment group (mice; 75 μg IV) | number of mice who survive treatment / number of mice in treatment group (mice; 150 μg IV) | number of mice who survive treatment / number of mice in treatment group (mice; 300 μg IV) | number of mice who survive treatment / number of mice in treatment group (mice; 600 μg IV) | side effects of surviving mice (scale) (mice; 150 μg IV) | histology of major organs (mice) | also measured
I: KHHHKHHHKHHHKHHHKKKK / II: KHHHKHHHKHHHKHHHK / III: KHHHKHHHKHHHKHHHK / IV: KHHHKHHHKHHHKHHHK (amide I:18-IV:C, I:19-III:C, I:20-II:C) [H^3K4b, [K-H-H-H-K-H-H-H-K-H-H-H-K-H-H-H-K]4K3] | 2/2 | 2/2 | 2/2 | 2/2 | – | – | Reduction In Cell Number (MDA-MB-435 cells; [2]): 0%; Reduction In Cell Number (MDA-MB-435 cells; [3]): 0%; Reduction In Cell Number (MDA-MB-435 cells; [4]): 0%; in vitro toxicity (in words, measured by cell number) (MDA-MB-435 cells; MDA-MB-435 cells): no observed toxicity; toxicity after repeated dosing (in words) (mice; three 600 μg dosages, each separated by 4 h): no evidence of toxicity
I: KHHHNHHHKHHHKHHHKKKK / II: KHHHNHHHKHHHKHHHK / III: KHHHNHHHKHHHKHHHK / IV: KHHHNHHHKHHHKHHHK (amide I:18-IV:C, I:19-III:C, I:20-II:C) [H^3KN4b, [K-H-H-H-N-H-H-H-K-H-H-H-K-H-H-H-K]4K3] | – | – | – | – | – | – | antimicrobial activity (in words) [1]: moderate antimicrobial activity
I: KHKHHKHHKHHKHHKHHKHKK / II: KHKHHKHHKHHKHHKHHKHK (amide I:21-II:C) [H^2K2b, [K-H-H-K-H-H-K-H-H-K-H-H-K-H-H-K-H-K]2K] | – | – | – | – | – | – | antimicrobial activity (in words) [1]: only moderate reduction on bacteria growth
I: KHKHHKHHKHHKHHKHHKHKKKK / II: KHKHHKHHKHHKHHKHHKHK / III: KHKHHKHHKHHKHHKHHKHK / IV: KHKHHKHHKHHKHHKHHKHK (amide I:21-IV:C, I:22-III:C, I:23-II:C) [H^2K4b, [KHKHHKHHKHHKHHKHHKHK]4K3] | 2/2 | 2/2 | 2/2 | 2/2 | – | – | Reduction In Cell Number (MDA-MB-435 cells; [2]): 5%; Reduction In Cell Number (MDA-MB-435 cells; [3]): 22%; Reduction In Cell Number (MDA-MB-435 cells; [4]): 12%
I: KHKHKHKHKGKHKHKHKHKKKK / II: KHKHKHKHKGKHKHKHKHK / III: KHKHKHKHKGKHKHKHKHK / IV: KHKHKHKHKGKHKHKHKHK (amide I:20-IV:C, I:21-III:C, I:22-II:C) [HK4b, [K-H-K-H-K-H-K-H-K-G-K-H-K-H-K-H-K-H-K]4K3] | 2/2 | 2/2 | 2/2 | 2/2 | – | – | –
KHKHKHKHKGKHKHKHKHK [linear HK, [K-H-K-H-K-H-K-H-K-G-K-H-K-H-K-H-K-H-K]] | 2/2 | 2/2 | 2/2 | 0/2 | ++, + | no evidence of pathology | Reduction In Cell Number (MDA-MB-435 cells): 68%; in vitro toxicity (in words, measured by cell number) (MDA-MB-435 cells): significantly more toxic; side effects of surviving mice (scale) (mice; 300 μg IV): +++, +++
RHKHKHKHKGKHKHKHKHK [HK-R, [R-H-K-H-K-H-K-H-K-G-K-H-K-H-K-H-K-H-K]] | 2/2 | 2/2 | 0/2 | 0/2 | +, + | no evidence of pathology | in vivo toxicity (in words) (mice): very toxic
RHRHRHRHRGRHRHRHRHR [linear RH, [R-H-R-H-R-H-R-H-R-G-R-H-R-H-R-H-R-H-R]] | 2/2 | 2/2 | 0/2 | 0/2 | +++, + | no evidence of pathology | side effects of surviving mice (scale) (mice; 75 μg IV): + (moderate reduction in activity in for less than 1 min); in vivo toxicity (in words) (mice): most toxic of the linear polymers
